Results as given in US20140011778A1, “2-METHYLENE-19,23,24-TRINOR-1ALPHA-HYDROXYVITAMIN D3” (Wisconsin Alumni Research Foundation, priority 2011, published 2014).
pEC50, pKi: −log10 of the molar value. Like-named read-outs stand apart in the source and are kept apart here.

Legend:
[1] = target: T1, Full-length recombinant rat receptor (vitamin D receptor) (Rattus norvegicus, UniProt P13053); experiment: Vitamin D receptor competitive binding; details: recombinant rat VDR, 3H-1,25(OH)2D3 1 nM
T1 construct: Full-length recombinant rat receptor was expressed in E. coli; histidine tag (C); made in house; host or cells: E. coli BL21(DE3) Codon Plus RIL
T1 sequence (P13053 1-423): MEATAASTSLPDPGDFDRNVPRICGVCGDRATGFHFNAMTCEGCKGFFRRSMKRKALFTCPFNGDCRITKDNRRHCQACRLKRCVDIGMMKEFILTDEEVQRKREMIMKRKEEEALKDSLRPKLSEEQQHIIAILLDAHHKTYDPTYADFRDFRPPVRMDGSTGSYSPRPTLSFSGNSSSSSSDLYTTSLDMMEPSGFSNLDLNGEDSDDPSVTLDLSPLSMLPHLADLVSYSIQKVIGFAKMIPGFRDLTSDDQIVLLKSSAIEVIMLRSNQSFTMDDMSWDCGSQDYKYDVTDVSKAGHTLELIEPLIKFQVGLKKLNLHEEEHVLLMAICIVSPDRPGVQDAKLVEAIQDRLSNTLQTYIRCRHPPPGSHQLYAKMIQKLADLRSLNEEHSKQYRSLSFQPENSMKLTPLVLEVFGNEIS
Experimental: Full-length recombinant rat receptor was expressed in E. coli BL21(DE3) Codon Plus RIL cells and purified to homogeneity using two different column chromatography systems. The first system was a nickel affinity resin that utilizes the C-terminal histidine tag on this protein. The protein that was eluted from this resin was further purified using ion exchange chromatography (S-Sepharose Fast Flow). Aliquots of the purified protein were quick frozen in liquid nitrogen and stored at −80° C. until use. For use in binding assays, the protein was diluted in TEDK50 (50 mM Tris, 1.5 mM EDTA, pH 7.4, 5 mM DTT, 150 mM KCl) with 0.1% Chaps detergent. The receptor protein and ligand concentration was optimized such that no more than 20% of the added radiolabeled ligand was bound to the receptor.
Unlabeled ligands were dissolved in ethanol and the concentrations determined using UV spectrophotometry (1,25(OH)2D3: molar extinction coefficient=18,200 and λmax=265 nm; Analogs: molar extinction coefficient=42,000 and λmax=252 nm). Radiolabeled ligand (^3H-1,25(OH)2D3, ˜159 Ci/mmole) was added in ethanol at a final concentration of 1 nM.
Radiolabeled and unlabeled ligands were added to 100 mcl of the diluted protein at a final ethanol concentration of ≦10%, mixed and incubated overnight on ice to reach binding equilibrium. […] Total binding was determined from the tubes containing only radiolabeled ligand.

[2] = system: Human promyelocytic leukemia (HL60) cells; experiment: HL-60 differentiation (nitro blue tetrazolium reduction); type: cell-based; details: for HL-60 Differentiation (Relative Activity): (value for native hormone)/(value for working example), same assay; for pEC50: Homo sapiens, 96 h, HL-60 cells into monocytes, 4 days
Experimental: The study drugs were dissolved in ethanol and the concentrations determined using UV spectrophotometry. Serial dilutions were prepared so that a range of drug concentrations could be tested without changing the final concentration of ethanol (≦0.2%) present in the cell cultures.
Human promyelocytic leukemia (HL60) cells were grown in RPMI-1640 medium containing 10% fetal bovine serum. The cells were incubated at 37° C. in the presence of 5% CO2.
HL60 cells were plated at 1.2×10^5 cells/ml. Eighteen hours after plating, cells in duplicate were treated with the drug. Four days later, the cells were harvested and a nitro blue tetrazolium reduction assay was performed (Collins et al., 1979; J. Exp. Med. 149:969-974). The percentage of differentiated cells was determined by counting a total of 200 cells and recording the number that contained intracellular black-blue formazan deposits. Verification of differentiation to monocytic cells was determined by measuring phagocytic activity (data not shown).

[3] = system: 24-hydroxylase (24OHase) gene promoter; experiment: In vitro transcription assay (24OHase promoter-luciferase in ROS 17/2.8 cells); type: cell-based; details: for 24OHase Transcription (Relative Activity): (value for native hormone)/(value for working example), same assay
Experimental: Transcription activity was measured in ROS 17/2.8 (bone) cells that were stably transfected with a 24-hydroxylase (24OHase) gene promoter upstream of a luciferase reporter gene (Arbour et al., 1998). Cells were given a range of doses. Sixteen hours after dosing, the cells were harvested and luciferase activities were measured using a luminometer. RLU=relative luciferase units.

Sprague-Dawley rats = experiment: Intestinal calcium transport (everted gut sac); type: in vivo, rat; details: for serosal calcium to mucosal calcium ratio: rat, at 780 pM (so in the source)
Experimental: Male, weanling Sprague-Dawley rats were placed on Diet 11 (0.47% Ca) diet+AEK oil for one week followed by Diet 11 (0.02% Ca)+AEK oil for 3 weeks. The rats were then switched to a diet containing 0.47% Ca for one week followed by two weeks on a diet containing 0.02% Ca. Dose administration began during the last week on 0.02% calcium diet. Four consecutive intraperitoneal doses were given approximately 24 hours apart. Twenty-four hours after the last dose, blood was collected from the severed neck and the concentration of serum calcium determined as a measure of bone calcium mobilization. The first 10 cm of the intestine was also collected for intestinal calcium transport analysis using the everted gut sac method.

[4] = target: T1, Full-length recombinant rat receptor (vitamin D receptor); details: comparison compound from an earlier filing; read-out: Competitive VDR Binding, Ki; cited from earlier work
[5] = ROS 17/2.8 cells, luciferase, 16 h, read-out: 24OHase Transcription, EC50

SMILES | pKi [1] | HL-60 Differentiation (Relative Activity) [2] | pEC50 [2] | 24OHase Transcription (Relative Activity) [3] | pEC50 [3, 5] | serosal calcium to mucosal calcium ratio (Sprague-Dawley rats) | pKi [4] | also measured
C=C1[C@H](O)CC(=C/C=C2\CCC[C@]3(C)[C@@H]([C@H](C)CC(C)C)CC[C@@H]23)C[C@H]1O [RMB, (20R)-2-methylene-19,23,24-trinor-1α-hydroxyvitamin D3] | 8.40 | 0.0005 | 5.22 | 0.003 | 7.00 | 0.9 | – | less active than (20R)-2MbisP in differentiation of HL-60 cells ([2]; ratio of relative activities 0.18/0.0005): approximately 360 times; less active than (20R)-2MbisP in hydroxylase transcription ([3]; ratio of relative activities 0.05/0.003): more than 16 times
C=C1C(O)CC(=CC=C2CCCC3(C)C2CCC3C(C)CC)CC1O [(20R)-2MbisP, 2-methylene-19-nor-(20R)-1α-hydroxybishomopregnacalciferol] | – | – | – | – | – | – | 10.11 | –
C=C1[C@H](O)CC(=C/C=C2\CCC[C@]3(C)[C@@H]([C@@H](C)CC(C)C)CC[C@@H]23)C[C@H]1O [SMB, (20S)-2-methylene-19,23,24-trinor-1α-hydroxyvitamin D3] | 9.40 | 0.08 | 7.40 | 0.04 | 8.10 | – | – | less active than 2MtrisP in HL-60 differentiation, normalized against native hormone ([2]; ratio of relative activities 1.2/0.08): ≈ 15; pEC50 ([3]; FIG. 3, read-out: EC50 with respect to increasing transcription of the 24-hydroxylase gene): 5.10; intestinal calcium transport activity lower than that of the native hormone (Sprague-Dawley rats; 7020 pmol SMB similar to 87 pmol native hormone): approximately 80 times
C=C1C(O)CC(=CC=C2CCCC3(C)C2CCC3C(C)CCC)CC1O [2MtrisP, 2-methylene-19-nor-(20S)-1α-hydroxytrishomopregnacalciferol] | – | – | – | – | – | – | 10.12 | –
C=C1/C(=C\C=C2/CCC[C@]3(C)[C@@H]([C@H](C)CCCC(C)(C)O)CC[C@@H]23)C[C@@H](O)C[C@@H]1O [native hormone, 1α,25-dihydroxyvitamin D3, reference compound] | – | – | – | – | – | 4.1 | – | –
